Data on 4 compounds can be found in ChEMBL document CHEMBL1201862, “PubChem BioAssay data set” (2004).

Some test systems named below: UACC-257; ACHN; CCRF-CEM; SF-268; HCT-15; COLO 205; OVCAR-8; SW-620; SK-MEL-5; DU-145; U-251; NCI/ADR-RES; TK-10; NCI-H460; IGROV-1; OVCAR-3; OVCAR-4; MDA-N.
Test in all cases: NCI-60 cell line screen, 48 h

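Exposure lasted 48 hours, with cells grown in 96-well plates and compounds tested at five concentrations. GI50 marks 50% less growth.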 Activity calls are given as the source filed them. Rule as the data show it: active = GI50 up to about 1.1 µM and inactive = higher.

For the compound `NC(=O)ON=C1CCN(Cc2ccccc2)CC1`, the GI50 with UACC-257 was > 100 µM (inactive); with ACHN, > 100 µM (inactive); with CCRF-CEM, > 100 µM (inactive); with SF-268, > 100 µM (inactive); with HCT-15, above 100 µM; in the test with COLO 205, > 100 µM (inactive). The GI50 in the test with OVCAR-8, in the test with SW-620, in the test with SK-MEL-5, in the test on DU-145, in the test on U-251 and in the test with NCI/ADR-RES was > 100 µM (inactive) each time. The GI50 in the test with TK-10 was 29.9 µM (inactive); in the test with NCI-H460 it was > 100 µM (inactive); in the test with IGROV-1, > 100 µM (inactive); in the test on OVCAR-3, > 100 µM (inactive); with OVCAR-4, > 100 µM (inactive); in the test with MDA-N it was > 100 µM (inactive).
As for `COC(=O)/C=C1\C(=O)C=C2[C@@H]3C[C@H]4C[C@H](CC[C@@]4(C)N21)C3(C)NC(C)=O` (some centres not stated), the GI50 with UACC-257 is 15.6 µM (inactive); with ACHN it was 16 µM (inactive); in the test with CCRF-CEM it was 4.4 µM (inactive); in the test on SF-268 it was 6.68 µM (inactive); with HCT-15, 11.5 µM; in the test on COLO 205 it was 5.9 µM (inactive). Besides, the GI50 in the test with OVCAR-8 is 16.6 µM (inactive); with SW-620, 2.8 µM (inactive); in the test with SK-MEL-5 it was 11.1 µM (inactive); in the test on DU-145, 10.7 µM (inactive); in the test on U-251 it was 17 µM (inactive); in the test on NCI/ADR-RES, 26.5 µM (inactive). The GI50 with TK-10 was 15.7 µM (inactive); in the test on NCI-H460, 29.8 µM (inactive); in the test with IGROV-1, 20 µM (inactive); in the test on OVCAR-3, 11.8 µM (inactive); in the test on OVCAR-4, 17.6 µM (inactive); with MDA-N, 11.2 µM (inactive).
Regarding `COC(=O)N1CC[C@@H]2CCC=C(c3cccc4c3OCO4)[C@@H]21`, the GI50 in the test with UACC-257 is 78.5 µM (inactive); in the test with ACHN, > 100 µM (inactive); with CCRF-CEM, 49.3 µM (inactive); in the test on SF-268 it was > 100 µM (inactive); in the test on HCT-15, 93.3 µM; in the test on COLO 205, > 100 µM (inactive). Further, the GI50 in the test on OVCAR-8 is > 100 µM (inactive); in the test with SW-620, > 100 µM (inactive); in the test on SK-MEL-5, 61.4 µM (inactive); in the test on DU-145, > 100 µM (inactive); in the test on U-251 it was > 100 µM (inactive); with NCI/ADR-RES, 54.2 µM (inactive). Besides, the GI50 in the test on TK-10 is 82.8 µM (inactive); in the test with NCI-H460, 60 µM (inactive); in the test on IGROV-1 it was > 100 µM (inactive); in the test on OVCAR-3, > 100 µM (inactive); with OVCAR-4 it was 45.4 µM (inactive); with MDA-N, > 100 µM (inactive).
For `CCOC(=O)c1[nH]cc(C)c1-c1ccn(-c2ccccc2)c1`, the GI50 with UACC-257 was 35.3 µM (inactive); in the test on ACHN, 50.2 µM (inactive); in the test on CCRF-CEM it was 19.2 µM (inactive); in the test with SF-268 it was 44.7 µM (inactive); in the test on HCT-15, 54.5 µM; in the test on COLO 205 it was 51.9 µM (inactive). In addition, the GI50 with OVCAR-8 was 38.3 µM (inactive); with SW-620 it was 80.4 µM (inactive); in the test with SK-MEL-5, 21.7 µM (inactive); in the test on DU-145, > 100 µM (inactive); in the test with U-251, 49.4 µM (inactive); in the test with NCI/ADR-RES, 36.2 µM (inactive). Moreover, the GI50 is 27.5 µM (inactive) in the test with TK-10; 38.6 µM (inactive) in the test with NCI-H460; 14.9 µM (inactive) with IGROV-1; 19.6 µM (inactive) in the test on OVCAR-3; 41.9 µM (inactive) with OVCAR-4; 35.6 µM (inactive) in the test with MDA-N.
